Assays:
HL-60 [1] = assay: Cytotoxicity against human HL60 cells at 30 uM after 48 hrs by SRB assay; format: functional; settings: HL-60, 48 h, read-out: GI
PC-3 [2] = assay: Cytotoxicity against human PC3 cells at 10 uM after 48 hrs by SRB assay; format: functional; settings: PC-3, 48 h, read-out: GI
THP-1 [3] = assay: Cytotoxicity against human THP1 cells after 48 hrs by SRB assay; format: functional, cell-based; settings: THP-1, 48 h
HCT-15 [4] = assay: Cytotoxicity against human HCT15 cells at 30 uM after 48 hrs by SRB assay; format: functional; settings: HCT-15, 48 h, read-out: GI
PC-3 [5] = assay: Cytotoxicity against human PC3 cells after 48 hrs by SRB assay; format: functional, cell-based; settings: PC-3, 48 h
A549 [6] = assay: Cytotoxicity against human A549 cells after 48 hrs by SRB assay; format: functional, cell-based; settings: A549, 48 h
THP-1 [7] = assay: Cytotoxicity against human THP1 cells at 10 uM after 48 hrs by SRB assay; format: functional; settings: THP-1, 48 h, read-out: GI
HL-60 [8] = assay: Cytotoxicity against human HL60 cells at 10 uM after 48 hrs by SRB assay; format: functional; settings: HL-60, 48 h, read-out: GI
THP-1 [9] = assay: Cytotoxicity against human THP1 cells at 30 uM after 48 hrs by SRB assay; format: functional; settings: THP-1, 48 h, read-out: GI
HCT-15 [10] = assay: Cytotoxicity against human HCT15 cells at 50 uM after 48 hrs by SRB assay; format: functional; settings: HCT-15, 48 h, read-out: GI
HEp-2 [11] = assay: Cytotoxicity against human Hep2 cells at 50 uM after 48 hrs by SRB assay; format: functional; settings: HEp-2, 48 h, read-out: GI
MCF7 [12] = assay: Cytotoxicity against human MCF7 cells after 48 hrs by SRB assay; format: functional, cell-based; settings: MCF7, 48 h
HL-60 [13] = assay: Cytotoxicity against human HL60 cells after 48 hrs by SRB assay; format: functional, cell-based; settings: HL-60, 48 h
A549 [14] = assay: Cytotoxicity against human A549 cells at 30 uM after 48 hrs by SRB assay; format: functional; settings: A549, 48 h, read-out: GI
THP-1 [15] = assay: Cytotoxicity against human THP1 cells at 50 uM after 48 hrs by SRB assay; format: functional; settings: THP-1, 48 h, read-out: GI
MCF7 [16] = assay: Cytotoxicity against human MCF7 cells at 30 uM after 48 hrs by SRB assay; format: functional; settings: MCF7, 48 h, read-out: GI
HCT-15 [17] = assay: Cytotoxicity against human HCT15 cells after 48 hrs by SRB assay; format: functional, cell-based; settings: HCT-15, 48 h
PC-3 [18] = assay: Cytotoxicity against human PC3 cells at 30 uM after 48 hrs by SRB assay; format: functional; settings: PC-3, 48 h, read-out: GI
DU-145 [19] = assay: Cytotoxicity against human DU145 cells at 30 uM after 48 hrs by SRB assay; format: functional; settings: DU-145, 48 h, read-out: GI
A549 [20] = assay: Cytotoxicity against human A549 cells at 10 uM after 48 hrs by SRB assay; format: functional; settings: A549, 48 h, read-out: GI
MCF7 [21] = assay: Cytotoxicity against human MCF7 cells at 50 uM after 48 hrs by SRB assay; format: functional; settings: MCF7, 48 h, read-out: GI
PC-3 [22] = assay: Cytotoxicity against human PC3 cells at 50 uM after 48 hrs by SRB assay; format: functional; settings: PC-3, 48 h, read-out: GI
HEp-2 [23] = assay: Cytotoxicity against human Hep2 cells after 48 hrs by SRB assay; format: functional, cell-based; settings: HEp-2, 48 h
DU-145 [24] = assay: Cytotoxicity against human DU145 cells at 50 uM after 48 hrs by SRB assay; format: functional; settings: DU-145, 48 h, read-out: GI
SF-295 [25] = assay: Cytotoxicity against human SF295 cells at 10 uM after 48 hrs by SRB assay; format: functional; settings: SF-295, 48 h, read-out: GI
DU-145 [26] = assay: Cytotoxicity against human DU145 cells at 10 uM after 48 hrs by SRB assay; format: functional; settings: DU-145, 48 h, read-out: GI
MCF7 [27] = assay: Cytotoxicity against human MCF7 cells at 10 uM after 48 hrs by SRB assay; format: functional; settings: MCF7, 48 h, read-out: GI
SF-295 [28] = assay: Cytotoxicity against human SF295 cells after 48 hrs by SRB assay; format: functional, cell-based; settings: SF-295, 48 h
HEp-2 [29] = assay: Cytotoxicity against human Hep2 cells at 10 uM after 48 hrs by SRB assay; format: functional; settings: HEp-2, 48 h, read-out: GI
HCT-15 [30] = assay: Cytotoxicity against human HCT15 cells at 10 uM after 48 hrs by SRB assay; format: functional; settings: HCT-15, 48 h, read-out: GI
DU-145 [31] = assay: Cytotoxicity against human DU145 cells after 48 hrs by SRB assay; format: functional, cell-based; settings: DU-145, 48 h
HEp-2 [32] = assay: Cytotoxicity against human Hep2 cells at 30 uM after 48 hrs by SRB assay; format: functional; settings: HEp-2, 48 h, read-out: GI
A549 [33] = assay: Cytotoxicity against human A549 cells at 50 uM after 48 hrs by SRB assay; format: functional; settings: A549, 48 h, read-out: GI
SF-295 [34] = assay: Cytotoxicity against human SF295 cells at 50 uM after 48 hrs by SRB assay; format: functional; settings: SF-295, 48 h, read-out: GI
SF-295 [35] = assay: Cytotoxicity against human SF295 cells at 30 uM after 48 hrs by SRB assay; format: functional; settings: SF-295, 48 h, read-out: GI
HL-60 [36] = assay: Cytotoxicity against human HL60 cells at 50 uM after 48 hrs by SRB assay; format: functional; settings: HL-60, 48 h, read-out: GI

Row | Structure (SMILES) | inhibition of growth at 30 µM (HL-60 [1]) | inhibition of growth at 10 µM (PC-3 [2]) | IC50 (THP-1 [3]) | inhibition of growth at 30 µM (HCT-15 [4]) | IC50 (PC-3 [5]) | IC50 (A549 [6]) | inhibition of growth at 10 µM (THP-1 [7]) | inhibition of growth at 10 µM (HL-60 [8]) | inhibition of growth at 30 µM (THP-1 [9]) | inhibition of growth at 50 µM (HCT-15 [10]) | inhibition of growth at 50 µM (HEp-2 [11]) | IC50 (MCF7 [12]) | IC50 (HL-60 [13]) | inhibition of growth at 30 µM (A549 [14]) | inhibition of growth at 50 µM (THP-1 [15]) | inhibition of growth at 30 µM (MCF7 [16]) | IC50 (HCT-15 [17]) | inhibition of growth at 30 µM (PC-3 [18]) | inhibition of growth at 30 µM (DU-145 [19]) | inhibition of growth at 10 µM (A549 [20]) | also measured
1 | C=C(C)[C@@H]1CC[C@]2(C(=O)O)CC[C@]3(C)[C@H](CC[C@@H]4[C@@]5(C)CC[C@H](OCc6cn(-c7cc(OC)c(OC)c(OC)c7)nn6)C(C)(C)[C@@H]5CC[C@]43C)[C@@H]12 | 51% | 8% | 39 µM | 35% | > 50 µM | > 50 µM | 35% | 41% | 44% | 43% | 48% | 10 µM | 37 µM | 26% | 58% | 71% | > 50 µM | 30% | 10% | 25% | inhibition of growth at 50 µM (MCF7 [21]): 74%; inhibition of growth at 50 µM (PC-3 [22]): 46%; IC50 (HEp-2 [23]): > 50 µM; inhibition of growth at 50 µM (DU-145 [24]): 11%; inhibition of growth at 10 µM (SF-295 [25]): 28%; inhibition of growth at 10 µM (DU-145 [26]): 3%; inhibition of growth at 10 µM (MCF7 [27]): 50%; IC50 (SF-295 [28]): 27 µM; inhibition of growth at 10 µM (HEp-2 [29]): 8%; inhibition of growth at 10 µM (HCT-15 [30]): 47%; IC50 (DU-145 [31]): > 50 µM; inhibition of growth at 30 µM (HEp-2 [32]): 38%; inhibition of growth at 50 µM (A549 [33]): 41%; inhibition of growth at 50 µM (SF-295 [34]): 51%; inhibition of growth at 30 µM (SF-295 [35]): 51%; inhibition of growth at 50 µM (HL-60 [36]): 65%
2 | C=C(C)[C@@H]1CC[C@]2(C(=O)O)CC[C@]3(C)[C@H](CC[C@@H]4[C@@]5(C)CC[C@H](OCc6cn(-c7cccc(OC)c7)nn6)C(C)(C)[C@@H]5CC[C@]43C)[C@@H]12 | 45% | 4% | 47 µM | 53% | > 50 µM | > 50 µM | 17% | 20% | 41% | 84% | 57% | 12 µM | 37 µM | 38% | 54% | 59% | 26 µM | 10% | 18% | 34% | inhibition of growth at 50 µM (MCF7 [21]): 75%; inhibition of growth at 50 µM (PC-3 [22]): 28%; IC50 (HEp-2 [23]): 29 µM; inhibition of growth at 50 µM (DU-145 [24]): 30%; inhibition of growth at 10 µM (SF-295 [25]): 15%; inhibition of growth at 10 µM (DU-145 [26]): 17%; inhibition of growth at 10 µM (MCF7 [27]): 46%; IC50 (SF-295 [28]): 32 µM; inhibition of growth at 10 µM (HEp-2 [29]): 30%; inhibition of growth at 10 µM (HCT-15 [30]): 23%; IC50 (DU-145 [31]): > 50 µM; inhibition of growth at 30 µM (HEp-2 [32]): 56%; inhibition of growth at 50 µM (A549 [33]): 45%; inhibition of growth at 50 µM (SF-295 [34]): 55%; inhibition of growth at 30 µM (SF-295 [35]): 48%; inhibition of growth at 50 µM (HL-60 [36]): 60%
